Assay: Pharmacokinetic performance of intranasal granisetron formulations in sheep (plasma granisetron by HPLC)
Assay type: in vivo
Conditions: in words
Experimental: A group of five female sheep was used, each weighing around 35 kg. The formulations were administered to a randomized cross-over design. […] This dose was provided by administering 0.4 ml of each formulation via a spray device with the dose volume being divided equally between both nostrils.
Blood samples were collected over a 360 minute period following dosing and plasma separated. […] Pharmacokinetic parameters were calculated from the plasma data.

absorption by the intranasal route: well absorbed
Compound: CN1C2CCCC1CC(NC(=O)c1nn(C)c3ccccc13)C2 (stereo not shown) [Granisetron, 1-methyl-N-(9-methyl-9-azabicyclo[3.3.1]non-3-yl)-1H-indazole-3-carboxamide]

From patent publication US7947257B2 (Archimedes Development Limited, priority 2003, dated 2011)
